Measurements published in paper PMC6028453, “BrlR from Pseudomonas aeruginosa is a receptor for both cyclic di-GMP and pyocyanin” (Nature Communications, 2018).

Target: T1, BrlR-C (Pseudomonas aeruginosa, UniProt Q9HUT5)
T1 construct: His6 (cleaved yes); made in house; host or cells: E. coli (same protocol as BrlR, induction at 18 °C)
Experiment: FP competition experiment, BrlR-C
Assay type: binding
Settings: 550 μM BrlR-C, 1 nM F-c-di-GMP
Experimental: Supplementary Figure 11: FP analyses of F-c-di-GMP binding to BrlR-C. (a) Isotherms of BrlR-C binding to F-c-di-GMP. The binding experiment was carried out at 25 °C in a buffer containing 150 mM NaCl, 25 mM Tris·HCl (pH 7.5), and 1 nM F-c-di-GMP. Increasing concentrations of BrlR-C were titrated into the reaction mixture to obtain the binding isotherms. (b) Fluorescence polarization competition experiment of BrlR-C. As a control, 550 μM BrlR-C was added to the reaction tube containing 1 nM F-c-di-GMP, and different competitors were respectively added in the solution and the values of millipolarization were recorded.
(1 picture or pasted object on this page, not shown here)

T1 sequence (Q9HUT5 120-270): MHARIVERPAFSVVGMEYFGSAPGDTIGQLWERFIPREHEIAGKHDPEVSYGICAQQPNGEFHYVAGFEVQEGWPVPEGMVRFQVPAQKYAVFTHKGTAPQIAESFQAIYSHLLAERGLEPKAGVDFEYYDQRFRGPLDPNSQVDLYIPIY

For `Nc1nc2c(ncn2[C@@H]2O[C@@H]3COP(=O)(O)O[C@H]4[C@@H](O)[C@H](n5cnc6c(=O)[nH]c(N)nc65)O[C@@H]4COP(=O)(O)O[C@H]3[C@H]2O)c(=O)[nH]1` [c-di-GMP, cyclic diguanylate monophosphate], the “competition with F-c-di-GMP binding to BrlR-C” value was “not”.
